This is an account of results in US11702469B2, “Recombinant EGFL7, EGFL7 antibodies, and uses thereof” (Ohio State Innovation Foundation, priority 2017, dated 2023).

One data set concerns FLT3-ITD AML. As to conditions: phase I/II study in AML; cited from earlier work.
The subject of a further data set is acute myeloid leukemia. As to conditions: PSC-833 arm with cytarabine, daunorubicin and etoposide; cited from earlier work.
Data set [1] deals with HES1. Description: OP9-DLL1 co-culture NOTCH activation (HES1 RT-PCR), THP-1. It counts as cell-based, human. As to conditions: THP-1 co-cultured with OP9-DLL1. The source says: FIG. 27. EGFL7 prevents NOTCH ligand inactivation of Notch signaling in AML cells. (A) Overview of experiments involving co-culture of THP-1 cells with mouse stromal cells overexpressing DLL1. (B) Total RNA was extracted for RT-PCR analysis of HES1 with β-ACTIN as internal control. ^###P<0.001 OP9-DLL1 vs OP9; *P<0.05, **P<0.01 vs untreated control.
Total RNA was extracted using Trizol reagent (Invitrogen, Carlsbad, Calif., USA). cDNA was synthesized using SuperScript III reagents (Invitrogen) according to the manufacturer's instruction. Quantitative Real-Time RT-PCR was performed using commercially available TaqMan Gene Expression Assay primers and the 7900HT Fast Real-Time PCR System (Applied Biosystems, Foster City, Calif., USA). The expression levels of target genes were normalized to β-ACTIN. Relative expression was calculated by using the comparative 2^−ΔΔct method.
It was next determined whether EGFL7 is inhibiting NOTCH signaling in AML cells by competing with canonical NOTCH ligand binding. To perform these experiments, THP-1 cells were cultured on DLL4-Fc and IgG-Fc (control) coated plates to activate NOTCH signaling. The effect of rEGFL7 and anti-EGFL7 on this DLL4-Fc NOTCH activation was also tested (FIG. 24A). […] For these experiments, co-culture was performed of THP-1 cells with stromal cells (OP9) overexpressing membrane bound DLL1 (OP9-DLL1)^25 (FIG. 27A).

For another data set, the system named is NOTCH signaling. Kind of data set: Gamma-secretase inhibitor on Parsatuzumab induced NOTCH activation, primary blasts. It counts as cell-based, human. The protocol:
FIG. 24A-24G. EGFL7 prevents activation of NOTCH signaling in AML cells. (FIG. 24A) Overview of experiments using DLL4-FC and IgG-FC control coated plates to induce NOTCH activation. (FIG. 24B) THP-1 cells were pre-treated with 10 μM γ-secretase inhibitor (AVA), 100 μg/ml anti-EGFL7 antibody or 0.25 μM rEGFL7 for 30 min, then transferred to IgG-Fc or DLL4-Fc coated plates. After 4 h of incubation total RNA from THP-1 cells was extracted for qRT-PCR analysis of HES1 with β-ACTIN as internal control. ^###P<0.001 DLL4-FC vs IgG-FC; ***P<0.001 DLL4+AVA, DLL4+rEGFL7, and DLL4+anti-EGFL7 vs DLL4-FC. […] THP-1 cells were treated with the indicated concentration of anti-EGFL7 (@E7) then assessed for apoptosis using (FIG. 24D) AnnexinV+ staining and FACS; *P<0.05 (FIG. 24E) Immuno-blotting for PARP1 and Casp3 cleavage. (FIG. 24F) Cell differentiation was assessed by CD11B and CD14 staining 96-hours post anti-EGFL7 treatments; *P<0.05. (FIG. 24G) To determine whether activation of NOTCH by DLL4-Fc could be accentuated by anti-EGFL7 treatment, THP-1 cells were first treated with anti-EGFL7 (100 μg/ml) and then cultured on DLL4-FC or IgG-Fc coated plates and then assessed for apoptosis using AnnexinV+ staining and FACS. *P<0.05 DLL4-Fc and anti-EGFL7; vs DLL4-FC+anti-EGFL7. […]

The test system of data set [2] is HES1. Description: DLL4-Fc coated plate NOTCH activation (HES1 qRT-PCR), THP-1. It counts as cell-based, human. The protocol:
FIG. 24A-24G. EGFL7 prevents activation of NOTCH signaling in AML cells. (FIG. 24A) Overview of experiments using DLL4-FC and IgG-FC control coated plates to induce NOTCH activation. (FIG. 24B) THP-1 cells were pre-treated with 10 μM γ-secretase inhibitor (AVA), 100 μg/ml anti-EGFL7 antibody or 0.25 μM rEGFL7 for 30 min, then transferred to IgG-Fc or DLL4-Fc coated plates. After 4 h of incubation total RNA from THP-1 cells was extracted for qRT-PCR analysis of HES1 with β-ACTIN as internal control. ^###P<0.001 DLL4-FC vs IgG-FC; ***P<0.001 DLL4+AVA, DLL4+rEGFL7, and DLL4+anti-EGFL7 vs DLL4-FC. (FIG. 24C) Primary AML blasts were pretreated with 10 μM γ-secretase inhibitor (AVA), 100 μg/ml anti-EGFL7 antibody or 0.25 μM rEGFL7 for 30 min, then transferred to IgG-Fc or DLL4-Fc coated plates. After 4 h of incubation, total RNA was extracted for RT-PCR analysis of HES1 mRNA with β-ACTIN as internal control. ^###P<0.001 DLL4-Fc vs IgG-Fc; *P<0.05, ***P<0.001 vs DLL4 Fc. THP-1 cells were treated with the indicated concentration of anti-EGFL7 (@E7) then assessed for apoptosis using (FIG. 24D) AnnexinV+ staining and FACS; *P<0.05 (FIG. 24E) Immuno-blotting for PARP1 and Casp3 cleavage. (FIG. 24F) Cell differentiation was assessed by CD11B and CD14 staining 96-hours post anti-EGFL7 treatments; *P<0.05. (FIG. 24G) To determine whether activation of NOTCH by DLL4-Fc could be accentuated by anti-EGFL7 treatment, THP-1 cells were first treated with anti-EGFL7 (100 μg/ml) and then cultured on DLL4-FC or IgG-Fc coated plates and then assessed for apoptosis using AnnexinV+ staining and FACS. *P<0.05 DLL4-Fc and anti-EGFL7; vs DLL4-FC+anti-EGFL7.
Total RNA was extracted using Trizol reagent (Invitrogen, Carlsbad, Calif., USA). cDNA was synthesized using SuperScript III reagents (Invitrogen) according to the manufacturer's instruction. Quantitative Real-Time RT-PCR was performed using commercially available TaqMan Gene Expression Assay primers and the 7900HT Fast Real-Time PCR System (Applied Biosystems, Foster City, Calif., USA). […]
(Real-time PCR tracks product formation cycle by cycle.)

`CCc1nc(C(N)=O)c(Nc2ccc(N3CCC(N4CCN(C)CC4)CC3)c(OC)c2)nc1NC1CCOCC1` [Gilteritinib]: the tolerability and safety entry with FLT3-ITD AML was “tolerable, safe”.

`C/C=C/C[C@@H](C)C(=O)[C@H]1C(=O)N[C@@H](C(C)C)C(=O)N(C)CC(=O)N(C)[C@@H](CC(C)C)C(=O)N[C@@H](C(C)C)C(=O)N(C)[C@@H](CC(C)C)C(=O)N[C@@H](C)C(=O)N[C@H](C)C(=O)N(C)[C@@H](CC(C)C)C(=O)N(C)[C@@H](CC(C)C)C(=O)N(C)[C@@H](C(C)C)C(=O)N1C` [PSC-833, valspodar]: the early deaths result in the data set on acute myeloid leukemia is recorded as “excessive early deaths”. On to `NC(=O)[C@@H](CCC(F)(F)F)N(Cc1ccc(-c2ncon2)cc1F)S(=O)(=O)c1ccc(Cl)cc1` [AVA, Avagacestat], for which, in the data set with HES1 [1], the “DLL1-mediated NOTCH activation (HES1)” value was “significantly reduced”. Also, in the data set with NOTCH signaling, the “Parsatuzumab induced NOTCH activation” value is recorded as “blocked”. In addition, the “DLL4-Fc-mediated NOTCH activation (HES1)” value with HES1 [2] (pre-treated 30 min: 10 μM AVA, 100 μg/ml anti-EGFL7 or 0.25 μM rEGFL7, then 4 h, vs DLL4-FC) is “significantly reduced”. With “DLL4-Fc: Recombinant human DLL4 (Fc chimera, ab108557), canonical NOTCH ligand”, the “NOTCH activation assessed by HES1 expression” value in the data set with HES1 [2] (DLL4-Fc vs IgG-Fc coated plates, 4 h) was “increases in NOTCH activation”.
